The source of these data is ChEMBL document CHEMBL1147633, “Structure-activity relationships of a novel class of endothelin receptor selective antagonists; 6-carboxy-2-isopropylamino-5,7-diarylcyclopenteno[1,2-b]pyridines” (Bioorg Med Chem Lett, 2004).

Test [1] concerns the target T1, Endothelin receptor type B (Homo sapiens, UniProt P24530).
T1 sequence (P24530 whole entry): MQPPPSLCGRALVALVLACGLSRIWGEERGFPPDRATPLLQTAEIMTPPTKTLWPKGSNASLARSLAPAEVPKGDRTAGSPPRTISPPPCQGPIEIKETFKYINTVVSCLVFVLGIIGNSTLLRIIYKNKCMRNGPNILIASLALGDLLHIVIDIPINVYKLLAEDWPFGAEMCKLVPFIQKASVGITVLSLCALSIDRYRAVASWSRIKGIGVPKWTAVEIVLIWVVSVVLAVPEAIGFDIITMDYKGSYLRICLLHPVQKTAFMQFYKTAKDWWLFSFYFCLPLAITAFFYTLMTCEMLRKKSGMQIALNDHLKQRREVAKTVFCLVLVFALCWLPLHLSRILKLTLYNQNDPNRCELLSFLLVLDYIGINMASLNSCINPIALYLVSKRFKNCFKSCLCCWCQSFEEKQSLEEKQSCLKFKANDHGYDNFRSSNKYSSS
Nature of the test: Inhibitory activity against [125I]ET1 binding to human endothelin B receptor.

In the next test the target is T2, Endothelin-1 receptor (Homo sapiens, UniProt P25101).
T2 sequence (P25101 whole entry): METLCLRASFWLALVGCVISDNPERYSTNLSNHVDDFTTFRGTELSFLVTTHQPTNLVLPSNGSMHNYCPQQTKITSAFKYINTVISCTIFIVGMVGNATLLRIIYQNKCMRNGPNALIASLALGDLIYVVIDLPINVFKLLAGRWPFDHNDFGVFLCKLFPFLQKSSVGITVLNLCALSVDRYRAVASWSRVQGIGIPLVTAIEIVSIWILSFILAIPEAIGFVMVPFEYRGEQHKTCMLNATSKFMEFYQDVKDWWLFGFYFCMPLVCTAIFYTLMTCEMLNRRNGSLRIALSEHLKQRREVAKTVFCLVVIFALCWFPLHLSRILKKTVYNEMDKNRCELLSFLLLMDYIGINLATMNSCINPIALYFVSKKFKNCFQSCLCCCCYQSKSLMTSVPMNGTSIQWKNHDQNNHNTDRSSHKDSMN
Nature of the test: Inhibitory activity against [125I]ET1 binding to human endothelin A receptor.

The test system of test [2] is Rattus norvegicus. As to the kind of experiment: Plasma levels of compound was evaluated in rats after 4 hr of oral administration at 10 mg/kg. It counts as functional, organism-based. The arrangement: dose 10 mg/kg.
Test [3] concerns Rattus norvegicus. Nature of the test: Plasma levels of compound was evaluated in rats after 1 hr of oral administration at 10 mg/kg. It is filed as functional, organism-based. On the set-up: dose 10 mg/kg.
Test [4] addresses Endothelin receptor, ET-A/ET-B (Homo sapiens) (UniProt P24530+P25101). Nature of the test: Selectivity ratio of inhibitory activity towards endothelin receptor A to endothelin receptor B (ETB/ETA). It counts as protein assay.
The subject of test [5] is Rattus norvegicus. Nature of the test: Plasma levels of compound was evaluated in rats after 8 hr of oral administration at 10 mg/kg. It counts as functional, organism-based. The arrangement: dose 10 mg/kg.
A further test deals with Mus musculus. Nature of the test: In vivo efficacy of compound was determined in mouse after intravenous administration. It counts as functional.
Test [6] has as its system Rattus norvegicus. As to the kind of experiment: Plasma levels of compound was evaluated in rats after 4 hr of oral administration at 3 mg/kg. It is filed as functional, organism-based. On the set-up: dose 3 mg/kg.
The test system of test [7] is Rattus norvegicus. As to the kind of experiment: Plasma levels of compound was evaluated in rats after 1 hr of oral administration at 3 mg/kg. It counts as functional, organism-based. The arrangement: dose 3 mg/kg.
Test [8] has as its system Rattus norvegicus. Nature of the test: Plasma levels of compound was evaluated in rats after 8 hr of oral administration at 3 mg/kg. It is filed as functional, organism-based. The arrangement: dose 3 mg/kg.
For a further test, the species on record is Oryctolagus cuniculus. As to the kind of experiment: Antagonistic activity towards endothelin A receptor was evaluated using the rabbit iliac artery in presence of 3% human serum albumin. It is filed as functional.

Consider `CCC(CO)Cc1cc(OC)ccc1[C@@H]1c2nc(NC(C)C)ccc2[C@H](c2ccc3c(c2)OCO3)[C@H]1C(=O)O` (stereo in doubt; form 1) [listing 1 of 2 here], for which the half-inhibitory concentration (IC50) in [1] amounted to 15.7 nM; at Endothelin-1 receptor, 0.045 nM.
Turning to `COCC(C)Cc1cc(OC)ccc1[C@@H]1c2nc(NC(C)C)ccc2[C@H](c2ccc3c(c2)OCO3)[C@H]1C(=O)O` (stereo in doubt; form 2) [listing 1 of 2 here], the Plasma level in the test on Rattus norvegicus [2] was 130 nM; with Rattus norvegicus [3] it was 810 nM; with Rattus norvegicus [5], 120 nM. The Selectivity ratio in test [4] was found to be 2300.
As to `CCC(CO)Cc1cc(OC)ccc1[C@@H]1c2nc(NC(C)C)ccc2[C@H](c2ccc3c(c2)OCO3)[C@H]1C(=O)O` (stereo in doubt; form 2) [listing 1 of 2 here], in test [4], the Selectivity ratio was determined as 910.
Molecule `COc1ccc([C@@H]2c3nc(NC(C)C)ccc3[C@H](c3ccc4c(c3)OCO4)[C@H]2C(=O)O)c(CC(C)C(=O)N(C)C)c1` (stereo in doubt) [listing 1 of 2 here] gave an AD50 with Mus musculus of 0.017 MPK. Further, the IC50 in test [1] was determined as 43 nM; at Endothelin-1 receptor, 0.024 nM.
With `COc1ccc([C@@H]2c3nc(NC(C)C)ccc3[C@H](c3ccc4c(c3)OCO4)[C@H]2C(=O)O)c(CC(C)CO)c1` (stereo in doubt; form 2) [listing 1 of 2 here], the Selectivity ratio in [4] is 860.
In the case of `COc1ccc([C@@H]2c3nc(NC(C)C)ccc3[C@H](c3ccc4c(c3)OCO4)[C@H]2C(=O)O)c(OC(C)CO)c1` (stereo in doubt; form 2) [listing 1 of 2 here], the Plasma level was determined as 20 nM in the test with Rattus norvegicus [2], 440 nM in the test on Rattus norvegicus [3] and 69 nM in the test on Rattus norvegicus [5].
Turning to `COCC(C)Cc1cc(OC)ccc1[C@@H]1c2nc(NC(C)C)ccc2[C@H](c2ccc3c(c2)OCO3)[C@H]1C(=O)O` (stereo in doubt; form 2) [listing 2 of 2 here], the AD50 in the test on Mus musculus was 0.042 MPK. For the same molecule, the IC50 is 25 nM in [1] and 0.011 nM at Endothelin-1 receptor.
As for `COc1ccc([C@@H]2c3nc(NC(C)C)ccc3[C@H](c3ccc4c(c3)OCO4)[C@H]2C(=O)O)c(OC(C)CO)c1` (stereo in doubt; form 1) [listing 1 of 2 here], the Plasma level is 47 nM with Rattus norvegicus [2], 160 nM with Rattus norvegicus [3] and 62 nM with Rattus norvegicus [5]. For the same molecule, in test [4], the Selectivity ratio worked out at 1700.
`COc1ccc([C@@H]2c3nc(NC(C)C)ccc3[C@H](c3ccc4c(c3)OCO4)[C@H]2C(=O)O)c(CC(C)(C)O)c1` had an AD50 in the test with Mus musculus of 0.042 MPK. Moreover, the IC50 was 14 nM in test [1] and 0.014 nM on Endothelin-1 receptor. Further, the figures for the Plasma level in the test on Rattus norvegicus [2], in the test with Rattus norvegicus [3] and in the test on Rattus norvegicus [5] were 48 nM, 460 nM and 110 nM, respectively. Besides, the Selectivity ratio in test [4] turned out to be 1000.
Take `COc1ccc([C@@H]2c3nc(NC(C)C)ccc3[C@H](c3ccc4c(c3)OCO4)[C@H]2C(=O)O)c(CC(C)CO)c1` (stereo in doubt; form 1): the Plasma level is 22 nM in the test with Rattus norvegicus [6], 110 nM in the test with Rattus norvegicus [7] and 11 nM with Rattus norvegicus [8]. Moreover, the Selectivity ratio in [4] was 1300.
In the case of `COc1ccc([C@@H]2c3nc(NC(C)C)ccc3[C@H](c3ccc4c(c3)OCO4)[C@H]2C(=O)O)c(CC(O)CO)c1` (stereo in doubt) [listing 1 of 2 here], the IC50 in [1] was found to be 5.6 nM; at Endothelin-1 receptor it was 0.048 nM.
As to `COc1ccc([C@@H]2c3nc(NC(C)C)ccc3[C@H](c3ccc4c(c3)OCO4)[C@H]2C(=O)O)c(CC(O)CO)c1` (stereo in doubt) [listing 2 of 2 here], in test [4], the Selectivity ratio worked out at 120.
The molecule `COc1ccc([C@@H]2c3nc(NC(C)C)ccc3[C@H](c3ccc4c(c3)OCO4)[C@H]2C(=O)O)c(OC(C)CO)c1` (stereo in doubt; form 1) [listing 2 of 2 here] registered an AD50 with Mus musculus of 0.046 MPK. In addition, the IC50 was determined as 61 nM in test [1] and 0.036 nM at Endothelin-1 receptor. Also, the PKB in the test filed under Oryctolagus cuniculus was determined as 8.
Turning to `CCCOc1cc(OC)ccc1[C@@H]1c2nc(NC(C)C)ccc2[C@H](c2ccc3c(c2)OCO3)[C@H]1C(=O)O`, the results for the IC50 (in test [1]; at Endothelin-1 receptor) were 100 nM and 0.41 nM, respectively. Further, in test [4], the Selectivity ratio was found to be 240.
On the same counts, the results for `COc1ccc([C@@H]2c3nc(NC(C)C)ccc3[C@H](c3ccc4c(c3)OCO4)[C@H]2C(=O)O)c(CCCO)c1` are 20 nM, 0.022 nM and 910.
On the same counts, the results for `COc1ccc([C@@H]2c3nc(NC(C)C)ccc3[C@H](c3ccc4c(c3)OCO4)[C@H]2C(=O)O)c(OC(C)C)c1` are 88 nM, 0.11 nM and 800.
For `COc1ccc([C@@H]2c3nc(NC(C)C)ccc3[C@H](c3ccc4c(c3)OCO4)[C@H]2C(=O)O)c(OC)c1` the same measures were 25 nM, 0.047 nM and 530.
For the molecule `CCC(CO)Cc1cc(OC)ccc1[C@@H]1c2nc(NC(C)C)ccc2[C@H](c2ccc3c(c2)OCO3)[C@H]1C(=O)O` (stereo in doubt; form 2) [listing 2 of 2 here], the IC50 in [1] stood at 11 nM; at Endothelin-1 receptor it was 0.011 nM.
Take `CCOc1cc(OC)ccc1[C@@H]1c2nc(NC(C)C)ccc2[C@H](c2ccc3c(c2)OCO3)[C@H]1C(=O)O`: the IC50 stood at 45 nM in test [1] and 0.74 nM on Endothelin-1 receptor. The Selectivity ratio in test [4] was 61.
Take `COc1ccc([C@@H]2c3nc(NC(C)C)ccc3[C@H](c3ccc4c(c3)OCO4)[C@H]2C(=O)O)c(OCc2ccccc2)c1`: the IC50 in test [1] worked out at 480 nM; at Endothelin-1 receptor, 0.8 nM. The Selectivity ratio in test [4] stood at 600.
For `COc1ccc([C@@H]2c3nc(NC(C)C)ccc3[C@H](c3ccc4c(c3)OCO4)[C@H]2C(=O)O)c(OCC(C)C)c1` the same measures were 420 nM, 0.86 nM and 490.
On the same counts, the results for `COc1ccc([C@@H]2c3nc(NC(C)C)ccc3[C@H](c3ccc4c(c3)OCO4)[C@H]2C(=O)O)c(CCO)c1` are 19 nM, 0.031 nM and 610.
Take `COc1ccc([C@@H]2c3nc(NC(C)C)ccc3[C@H](c3ccc4c(c3)OCO4)[C@H]2C(=O)O)c(CC(C)CO)c1` (stereo in doubt; form 2) [listing 2 of 2 here]: the half-inhibitory concentration (IC50) in [1] came out at 51 nM; at Endothelin-1 receptor, 0.059 nM.
As for `COc1ccc([C@@H]2c3nc(NC(C)C)ccc3[C@H](c3ccc4c(c3)OCO4)[C@H]2C(=O)O)c(O)c1`, the IC50 in test [1] turned out to be 290 nM; on Endothelin-1 receptor it was 0.22 nM. For the same molecule, the Selectivity ratio in [4] amounted to 1300.
For the molecule `COc1ccc([C@@H]2c3nc(NC(C)C)ccc3[C@H](c3ccc4c(c3)OCO4)[C@H]2C(=O)O)c(CC(C)C(=O)N(C)C)c1` (stereo in doubt) [listing 2 of 2 here], the Plasma level was determined as 7 nM in the test with Rattus norvegicus [2], 65 nM in the test with Rattus norvegicus [3] and 10 nM in the test with Rattus norvegicus [5]. Besides, in test [4], the Selectivity ratio was 1800.
`COc1ccc([C@@H]2c3nc(NC(C)C)ccc3[C@H](c3ccc4c(c3)OCO4)[C@H]2C(=O)O)c(CC(O)CO)c1` (single isomer, unassigned) [listing 1 of 2 here]: the Selectivity ratio in test [4] was found to be 550.
Turning to `CCC(CO)Cc1cc(OC)ccc1[C@@H]1c2nc(NC(C)C)ccc2[C@H](c2ccc3c(c2)OCO3)[C@H]1C(=O)O` (stereo in doubt; form 1) [listing 2 of 2 here], the Selectivity ratio in test [4] was 350.
On to `COc1ccc([C@@H]2c3nc(NC(C)C)ccc3[C@H](c3ccc4c(c3)OCO4)[C@H]2C(=O)O)c(OC(C)CO)c1` (stereo in doubt; form 2) [listing 2 of 2 here], for which the results for the IC50 (in test [1]; at Endothelin-1 receptor) were 78 nM and 0.057 nM, respectively. Also, the PKB in the test listed under Oryctolagus cuniculus stood at 7.46.
Consider `COc1ccc([C@@H]2c3nc(NC(C)C)ccc3[C@H](c3ccc4c(c3)OCO4)[C@H]2C(=O)O)c(CC(C)C(=O)N(C)C)c1` (single isomer, unassigned) [listing 1 of 2 here], for which the IC50 in test [1] came to 9.5 nM; on Endothelin-1 receptor, 0.014 nM.
For `COc1ccc([C@@H]2c3nc(NC(C)C)ccc3[C@H](c3ccc4c(c3)OCO4)[C@H]2C(=O)O)c(CC(C)C(=O)N(C)C)c1` (single isomer, unassigned) [listing 2 of 2 here], the Selectivity ratio in [4] came to 680.
As for `COc1ccc([C@@H]2c3nc(NC(C)C)ccc3[C@H](c3ccc4c(c3)OCO4)[C@H]2C(=O)O)c(CCC(C)(C)O)c1`, the IC50 amounted to 23 nM in test [1] and 0.065 nM at Endothelin-1 receptor. The Selectivity ratio in test [4] was determined as 350.
In the case of `COc1ccc([C@@H]2c3nc(NC(C)C)ccc3[C@H](c3ccc4c(c3)OCO4)[C@H]2C(=O)O)c(CC(O)CO)c1` (single isomer, unassigned) [listing 2 of 2 here], the IC50 in [1] was 6 nM; at Endothelin-1 receptor, 0.011 nM.

Broadly, the IC50 is the point on the concentration scale where inhibition reaches its midpoint.
